Reference: patent publication US4853334A, “Method for the degradation of volatile chlorinated aliphatic hydrocarbons using pseudomonas fluorescens” (Microlife Technics, Inc., priority 1988, dated 1989)
Where “and” joins values, the source holds several entries; their conditions need not be identical. Equal entries are not always repeated.

Legend:
[1] = test system: Pseudomonas fluorescens NRRL-B-18296; experiment: Growth on volatile chlorinated carbon sources (minimal media, vapor phase); assay type: cell-based; design: key: +: Growth; -: no growth; conditions: 72 hours at 25° C., minimal media (mmo), carbon source in vapor phase of sealed container
Procedure: ^1 Incubation was for 72 hours at 25° C. on minimal media
(mmo). Volatile carbon sources were supplied in the vapor phase of a
sealed container. +, Growth; -, no growth.

[2] = test system: Pseudomonas fluorescens NRRL-B-18296; experiment: Degradation of various chloroaliphatic carbon sources in minimal medium broth (Example 3); assay type: cell-based; conditions: 100 ppm; mmo with 0.5% glucose, 0.005% yeast extract, 0.4% potassium nitrate; 10^6 bacteria/ml; 25° C., 24 hours
Procedure: (§1) In Examples 3 to 6, compounds of interest were quantitated using a Perkin-Elmer (model 8500) gas chromatograph equipped with an HS-6 headspace analyzer (Perkin-Elmer, Norwalk, CT). The instrument was fitted with a 6 foot stainless steel Sp2100 column (Supelco, Bellefonte, PA). Carrier gas flow rate (helium) was 20 ml/min. with an isothermal column temperature of 60° C. Injector and detector temperatures were 150° C. and 200° C. respectively.
(§2) All sample vials were equilibrated at 80° C. in the headspace analyzer for 10 minutes. Vial pressurization times of 30 seconds and injection times of 6 seconds were both controlled by programmed instrument time functions.
(§3) Calibrations were made by the external standard method using the internal data handling capabilities of the instrument. 100 ppm standards were prepared by dispensing 10 ul of the compounds into a serum bottle containing 100.0 g of chilled media analogous to experimental vials. Once the compound was completely dissolved, 2.00 g of the mixture was delivered by syringe to a headspace vial and sealed for subsequent headspace GC analysis.
(§4) Analysis of experimental vials was conducted by removing an aliquot by syringe and delivering 2.00 g to a headspace vial. Vials (6 ml) specified for use with the headspace analyzer were sealed using 19 mm TFE/silicone rubber septa and 20 mm crimp top seals (Alltech Associates, Deerfield, IL). A hand operated crimper was utilized.
The experiments were accomplished in 50 ml of minimal medium (mmo) that was modified. The modified minimal media (mmo) contained the sodium-potassium phosphate buffer at 0.06 M final concentration. The modified (mmo) was supplemented to a final concentration with 0.5% glucose, 0.005% yeast extract, 0.4% potassium nitrate and the volatile chloroaliphatic compound at 100 ppm. The flasks were inoculated with Pseudomonas fluorescens NRRL-B-18296 at 10^6 bacteria/ml. The remaining headspace in the vials was then filled with pure oxygen (approximately 60 ml) and sealed using 19 mm TFE/silicone rubber septa with 20mm crimp top seals. A hand operated crimper was utilized. The sealed vials were then shaken at 350 rpm on a New Brunswick gyrotary shaker (New Brunswick Scientific, Edison, NJ) at 25° C. for 24 hours.
Samples in triplicate (2.00 g) were removed after the 24 hour incubation. The samples were sealed in 6 ml vials and subjected to headspace analysis.
^1 values reported as percentage amounts of 100 ppm carbon source

[3] = test system: Pseudomonas fluorescens NRRL-B-18296; experiment: Degradation of halogenated hydrocarbons by the strain (general statements); assay type: cell-based
[4] = formed by anaerobic methanogens; Bouwer 1983; cited from earlier work
Acinetobacter sp. = conditions: induced by prior growth on phenol; Nelson et al.; cited from earlier work
[5] = test system: Pseudomonas fluorescens NRRL-B-18296; experiment: Induction of degradation of 1,2-dichloroethane using various carbon sources (Example 6); assay type: cell-based
Procedure: as §1, §2
as §3, with “analysis. […]” for “analysis.”
Individual flasks were supplemented with the following carbon sources at 2mM: ethanol, sodium acetate, glucose, sodium succinate, sodium benzoate, ortho cresol or meta cresol. […] After incubation for 24 hours, the vials were analyzed directly on the headspace gas chromatograph.

[6] = test system: Pseudomonas fluorescens NRRL-B-18296; experiment: Degradation of a mixture of 1,2-dichloroethane and 1,2-dichloropropane, 0.1% glucose (Example 4); assay type: cell-based; conditions: for % degradation: mixture, 100 ppm each, 0.1% glucose, 0.4% potassium nitrate, 10^6 bacteria/ml, 25° C., 168 hours
Procedure: as §1, §2, §3, §4
The potassium nitrate provides an assured oxygen source for this strain, since the degradations must be conducted under aerobic conditions.
^1 Experiments were accomplished in 100 ml minimal medium (mmo) supplemented with 0.1% glucose, 100 ppm of 1,2-dichloroethane, 100 ppm of 1,2-dichloropropane, and 0.4% potassium nitrate. The flasks were inoculated with Pseudomonas fluorescens NRRL-B-18296 at 10^6 bacteria/ml, sealed and shaken at 350 rpm on a New Brunswick gyrotary shaker (New Brunswick Scientific, Edison, NJ) at 25° C. for 168 hours. The shaking provides further oxygen to the medium.

[7] = test system: Pseudomonas fluorescens NRRL-B-18296; experiment: Degradation of a mixture of 1,2-dichloroethane and 1,2-dichloropropane, 1.0% glucose (Example 5); assay type: cell-based; conditions: glucose concentration increased to 1.0%
Procedure: as §1, §2, §3
Analysis of experimental vials was conducted by removing an aliquot by syringe and delivering 2.00 g to a headspace vial. Vials (6 ml) specified for use with the headspace analyzer were sealed using 19 mm TFE/silicone rubber septa and 20 mm crimp top seals (Alltech Associates, Deerfield, IL). […]

SMILES | Growth on carbon source [1] | % degradation [2] [%] | Degradation by the strain (in words) [3] | other results
ClCCCCl [1,3-dichloropropane] | - | 0 |  | 
CC(C)(Cl)Cl [2,2-dichloropropane] | + | 7 | can be degraded | 
CC(Cl)(Cl)Cl [1,1,1-trichloroethane] |  | 0 | not degraded | 
ClCCl [dichloromethane] |  |  | not degraded | 
C=CCl [vinyl chloride] |  |  |  | toxicity relative to haloaliphatic hydrocarbons [4]: more toxic than the haloaliphatic hydrocarbons
ClC=C(Cl)Cl [trichloroethylene] | + | 2 | can be degraded | aerobic metabolism (in words) (Acinetobacter sp.): aerobic metabolism
O=C[C@H](O)[C@@H](O)[C@H](O)[C@H](O)CO [glucose] |  |  |  | Induction of degradation of 1,2-dichloroethane ([5]; short time period of degradation): best carbon source to induce the degradation of 1,2-dichloroethane
CC(Cl)CCl (stereo not drawn) [1,2-dichloropropane] | + | 3 | can be degraded | Degradation upon extended degradation and supplementing with more glucose [6]: substantially completely degraded; % degradation [6]: 32.1% and 32%; degradative rate, with respect to time [7]: increased
CC(O)C(=O)O (stereo not drawn) [Sodium lactate] |  |  |  | Suitability as carbon source for the strain ([5]; 20 mM sodium lactate pre-culture, 25° C., 24 hours): effective carbon source
ClC(Cl)=C(Cl)Cl [tetrachloroethylene] | - | 0 |  | 
ClCC(Cl)Cl [1,1,2-trichloroethane] | + | 23 | can be degraded | 
ClCCCl [1,2-dichloroethane] | + | 10 | can be degraded | Degradation upon extended degradation and supplementing with more glucose [6]: substantially completely degraded; % degradation [6]: 23.3% and 23%; degradative rate, with respect to time [7]: increased
ClC(Cl)(Cl)Cl [Carbon tetrachloride] |  |  | not degraded | 
